The record followed here is patent publication US10934312B2, “Tricyclic heterocycle compounds useful as HIV integrase inhibitors” (Merck Sharp & Dohme Corp., priority 2016, dated 2021).

The subject of one assay is HIV-1 (NL4-3 strain). Nature of the assay: Assay for Inhibition of HIV Replication (VIKING, MT4-gag-GFP reporter cells). The assay is classed as cell-based. To be noted: 0% normal human serum; MT4-GFP cells infected with HIV-1 NL4-3; infected cells at 48 h / 24 h; read-out: VIKING IP50 (nM) with 0% NHS. As to the method:
This assay may be useful for assessing the ability of a compound of the present invention to inhibit HIV replication. The assay is a kinetic assay that employs a reporter cell line (MT4-gag-GFP) to quantify the number of new cells infected in each round of replication.
MT4-GFP cells (250,000 cells/ml) are bulk-infected with HIV-1 (NL4-3 strain) at low multiplicity of infection (MOI) in RPMI+10% FBS for 24 hours. Cells are then washed once in RPMI+10% FBS and resuspended in RPMI+0% normal human serum (NHS). Test compounds are serial-diluted in DMSO on ECHO. The infected MT4-GFP cells are added to a 384-well poly-D-lysine coated black plate with clear bottom in which the diluted test compounds are placed. The cells are seeded at 8,000 cells per well and the final DMSO concentration is adjusted to 0.4%. The infected cells (Green GFP cells) are then quantified at both 24 and 48 hours post incubation using Acumen eX3. Viral reproductive ratio (R0) is determined using the number of infected cells at 48 hours divided by the number of infected cells at 24 hours. Percent viral growth inhibition is calculated by [1-(R—Rtripledrug)/(RDMSO—Rtripledrug)]*100. Compound potency IP or IC50 may be determined using a 4-parameter dose response curve analysis.
Take `COCCN1CN2CC(OC)c3c(C(=O)NCc4ccc(F)c(Cl)c4F)c(=O)c(O)c(n32)C1=O` (single isomer, unassigned) [Compound 11]: the IC50 came out at 1.1 nM.
On the same count and under the same terms, for `COCCN1CN2CC(OC)c3c(C(=O)NCc4cccc(Cl)c4F)c(=O)c(O)c(n32)C1=O` (single isomer, unassigned) [Compound 12] the value was 2.3 nM; for `COCCN1CN2CC(OC)c3c(C(=O)NCc4cccc(Cl)c4F)c(=O)c(O)c(n32)C1=O` (single isomer, unassigned) [Compound 13], 1 nM; for `COCCN1CN2CC(OC)c3c(C(=O)NCc4ccc(F)cc4)c(=O)c(O)c(n32)C1=O` (single isomer, unassigned) [Compound 14], 4.6 nM.
Same read-out and setting: for `COCCN1CN2CC(OC)c3c(C(=O)NCc4ccc(F)cc4)c(=O)c(O)c(n32)C1=O` (single isomer, unassigned) [Compound 15] the value was 1.9 nM; for `COC1CN2CN(CC3CC3)C(=O)c3c(O)c(=O)c(C(=O)NCc4cccc(Cl)c4F)c1n32` (single isomer, unassigned) [Compound 20], 1.2 nM; for `CCN1CN2CC(OC)c3c(C(=O)NCc4ccc(F)c(Cl)c4F)c(=O)c(O)c(n32)C1=O` (single isomer, unassigned) [Compound 25], 0.9 nM.
As to `CCN1CN2CC(OC)c3c(C(=O)NCc4cccc(Cl)c4F)c(=O)c(O)c(n32)C1=O` (single isomer, unassigned) [Compound 27], the IC50 was found to be 1.2 nM.
Same read-out and setting: for `COC1CN2CN(C)C(=O)c3c(O)c(=O)c(C(=O)NCc4cccc(Cl)c4F)c1n32` (single isomer, unassigned) [Compound 30] the value was 1.5 nM; for `COC1CN2CN(C)C(=O)c3c(O)c(=O)c(C(=O)NCc4cccc(Cl)c4F)c1n32` (single isomer, unassigned) [Compound 31], 0.5 nM.
On the same count and under the same terms, for `COC1CN2CN(C)C(=O)c3c(O)c(=O)c(C(=O)NCc4ccc(F)c(Cl)c4)c1n32` (single isomer, unassigned) [Compound 33] the value was 0.8 nM; for `COC1CN2n3c(c(O)c(=O)c(C(=O)NCc4ccc(F)cc4F)c31)C(=O)N(C)C21CCOC1` (stereo not drawn) [Compound 37], 8.5 nM.
Still for that read-out and setting: for `COC1CN2n3c(c(O)c(=O)c(C(=O)NCc4ccc(F)cc4F)c31)C(=O)N(C)C21CCOC1` (stereo not drawn) [Compound 39] the value was 2.4 nM; for `COC1CN2n3c(c(O)c(=O)c(C(=O)NCc4ccc(F)cc4F)c31)C(=O)N(C)C21CCOC1` (stereo not drawn) [Compound 40], 3.8 nM.

The same assay, now with this note: Human immunodeficiency virus 1, NL43, 0% normal human serum; MT4-GFP cells infected with HIV-1 NL4-3; infected cells at 48 h / 24 h; read-out: VIKING IP50 (nM) with 0% NHS.
As for `COCCN1CN2CC(OC)c3c(C(=O)NCc4ccc(F)cc4F)c(=O)c(O)c(n32)C1=O` (single isomer, unassigned) [Compound 9], the IC50 stood at 1.4 nM.
Still for that read-out and setting: for `COCCN1CN2CC(OC)c3c(C(=O)NCc4ccc(F)c(Cl)c4F)c(=O)c(O)c(n32)C1=O` (single isomer, unassigned) [Compound 10] the value was 1.4 nM; for `COCCN1CN2CC(OC)c3c(C(=O)NCc4ccccc4F)c(=O)c(O)c(n32)C1=O` (single isomer, unassigned) [Compound 16], 1.5 nM; for `COC1CN2CN(CC3CC3)C(=O)c3c(O)c(=O)c(C(=O)NCc4ccc(F)cc4F)c1n32` (single isomer, unassigned) [Compound 18], 0.4 nM.
As to `COC1CN2CN(CC3CC3)C(=O)c3c(O)c(=O)c(C(=O)NCc4cccc(Cl)c4F)c1n32` (single isomer, unassigned) [Compound 19], the IC50 is 2.4 nM.
On the same count and under the same terms, for `COC1CN2CN(CC3CC3)C(=O)c3c(O)c(=O)c(C(=O)NCc4ccc(F)c(Cl)c4)c1n32` (single isomer, unassigned) [Compound 21] the value was 1 nM.
In the case of `CCN1CN2CC(OC)c3c(C(=O)NCc4ccc(F)cc4F)c(=O)c(O)c(n32)C1=O` (single isomer, unassigned) [Compound 23], the IC50 was found to be 4.1 nM.
Still for that read-out and setting: the same measure for `CCN1CN2CC(OC)c3c(C(=O)NCc4ccc(F)c(Cl)c4F)c(=O)c(O)c(n32)C1=O` (single isomer, unassigned) [Compound 24]: 1.5 nM; for `CCN1CN2CC(OC)c3c(C(=O)NCc4cccc(Cl)c4F)c(=O)c(O)c(n32)C1=O` (single isomer, unassigned) [Compound 26]: 1.5 nM.
Turning to `COC1CN2CN(C)C(=O)c3c(O)c(=O)c(C(=O)NCc4ccc(F)cc4F)c1n32` (single isomer, unassigned) [Compound 29], the IC50 is 9.9 nM.
`COC1CN2CN(C)C(=O)c3c(O)c(=O)c(C(=O)NCc4ccc(F)c(Cl)c4)c1n32` (single isomer, unassigned) [Compound 32]: the IC50 was 1.2 nM.
Same read-out and setting: for `CC(C)N1CN2C(=O)N(C)Cc3c(C(=O)NCc4ccc(F)cc4F)c(=O)c(O)c(n32)C1=O` [Compound 4] the value was 2 nM; for `COCCN1CN2C(=O)N(C)Cc3c(C(=O)NCc4ccc(F)cc4F)c(=O)c(O)c(n32)C1=O` [Compound 5], 1.7 nM.
Same read-out and setting: for `COC1CN2CN(C(C)C)C(=O)c3c(O)c(=O)c(C(=O)NCc4ccc(F)cc4F)c1n32` (stereo not drawn) [Compound 7] the value was 13.3 nM; for `CCN1CN2CC(OC)c3c(C(=O)NCc4ccc(F)cc4F)c(=O)c(O)c(n32)C1=O` (stereo not drawn) [Compound 22], 2.1 nM; for `CCN1Cn2ccc3c(C(=O)NCc4ccc(F)cc4F)c(=O)c(O)c(n32)C1=O` [Compound 34], 11.5 nM.
Still for that read-out and setting: for `CCN1CN2CCc3c(C(=O)NCc4ccc(F)cc4F)c(=O)c(O)c(n32)C1=O` [Compound 35] the value was 2.2 nM.
Take `CCN1CN2CCCc3c(C(=O)NCc4ccc(F)cc4F)c(=O)c(O)c(n32)C1=O` [Compound 36]: the IC50 was found to be 11.4 nM.
`COC1CN2n3c(c(O)c(=O)c(C(=O)NCc4ccc(F)cc4F)c31)C(=O)N(C)C21CCOC1` (stereo not drawn) [Compound 38]: the IC50 is 2.6 nM.
On the same count and under the same terms, for `CN1CN2CCc3c(C(=O)NCc4c(F)cc(F)cc4F)c(=O)c(O)c(n32)C1=O` [Compound 41] the value was 2.9 nM.
Same read-out and setting: the same measure for `CN1CN2CCc3c(C(=O)NCc4ccc(F)cc4F)c(=O)c(O)c(n32)C1=O` [Compound 42]: 1.6 nM; for `CN1CN2CCc3c(C(=O)NCc4c(F)ccc(Cl)c4F)c(=O)c(O)c(n32)C1=O` [Compound 43]: 1.8 nM.
